Results published in patent publication US4407803A, “Antiinflammatory 1-(quinolinyl)-2-pyrazoline derivatives” (Abbott Laboratories, priority 1981, dated 1983).

Columns and labels:
[1] = test system: dermal Arthus reaction; experiment: reverse passive Arthus assay in rats (dermal lesion); assay type: in vivo, Male Sprague-Dawley rats; conditions: 100 mg/kg, oral, 30 min before anti-B.S.A.; lesion measured at four hours
Method: Proc. 35, 774 (1976). Each compound was administered orally to a group of four animals.
The […] passive Arthus reaction test in rats is conducted as follows: Male Sprague-Dawley rats weighing approximately 130-160 g. are used, 4 rats per group. All animals are injected intravenously with 0.5 ml. 0.075% Bovine Serum Albumin (B.S.A.)+2% Evans Blue solution. Each rat then receives an oral dose of drug; one drug is administered per group.
Thirty minutes subsequent to drug dosing, each animal is injected intradermally with 0.05 ml. 1.44% Anti-B.S.A. into the dorsal skin. Four hours later the animals are sacrificed, the dorsal skin reflexed, and the lesion excised. Two perpendicular diameters of each lesion are measured. The average diameters of the lesions from the treated groups are compared with the average diameters from the control group to determine any drug effect.

[2] = test system: carrageenin pleurisy; experiment: modification of the carrageenin pleurisy assay (reduction in accumulation of exudate volume and leukocytes); assay type: in vivo; conditions: for % Inhibition Cells: leukocytes
Description: The compounds of the present invention have anti-inflammatory activity and inhibitory effect against Type III hypersensitivity reaction. These compounds are useful for the therapy of rheumatoid arthritis, other inflammatory conditions, Type III hypersensitivity diseases and in diseases in which polymorphonuclear leukocytes accumulation contributes to the pathology. The anti-inflammatory activity of these compounds was established by using a modification of the carrageenin pleurisy assay described by Vinegar et al. Proc. Soc. Exp. Biol. Med. 143:711 (1973).

SMILES	% Inhibition of lesion of dermal Arthus reaction [1]	% Inhibition Volume exudates ([2]; Dose 60 (dose unit not given))	% Inhibition Cells ([2]; Dose 60 (dose unit not given))	% Inhibition Volume exudates ([2]; Dose 100 (dose unit not given))	% Inhibition Cells ([2]; Dose 100 (dose unit not given))
N=C1CCN(c2ccc3ccccc3n2)N1 [1-(2'-quinolinyl)-3-iminopyrazolidine, 1-(2'-quinolinyl)-3-imino-pyrazolidine]	72%				
N=C1CCN(c2cnc3ccccc3c2)N1 [1-(3'-quinolinyl)-3-iminopyrazolidine, 1-(3'-Quinolinyl)-3-iminopyrazolidine]	37%	86%	71%		
N=C1CCN(c2ccnc3cc(Cl)ccc23)N1 [1-(7'-chloro-4'-quinolinyl)-3-imino pyrazolidine]	53%				
CCCCC1C(=O)N(c2ccccc2)N(c2ccccc2)C1=O [Phenylbutazone, reference compound]				59%	13%
